# Patent US20070135515A1, “Method for producing sorbicillactone a” (priority 2004, published 2007)
# System: L5178Y mouse lymphoma cells (ATCC CRL 1722)
# Experiment: Genotoxicity: Comet-Assay (alkaline electrophoresis, extent tail moment)
# Type: cell-based
# Details: 1, 3, and 10 μg/mL
# Experimental: Material: “Normal Melting Agarose” (NMA, Cat.-No. 840041) and “Low Melting Agarose” (LMA, Kat.-Nr. 870081) were obtained from Biozym (Hamburg, Germany), Triton x-100 from Fluka (Buchs S G, Schwitzerland), RPMI1640-medium, DMSO, and EDTA from Sigma-Aldrich (Taufkirchen, Germany), NaCl and Tris from Roth (Karlsruhe, Germany) and foetal calf serum (FCS) from Gibco (Karlsruhe, Germany). Sorbicillactone A of the batch: 2208/2a was used.
# Cells: The genotoxicity of sorbicillactone A was tested on L5178Y mouse lymphoma cells (ATCC CRL 1722). As described (Müller et al., 1979, Cancer Res. 39:1102-1107), the cells were cultured in RPMI1640-medium with 10 mM Hepes, which was supplemented with 10% foetal calf serum (FCS). As a concentration of the inoculum, 10^4 cells/mL was chosen. The cells were incubated with 1, 3, and 10 μg/mL sorbicillactone A for 4 and 24 hours. After the incubation, the cells were examined with the “Comet-Assay”.
# Alkaline electrophoresis: The object slides (Superfrost) were cleaned with acetone. 1.0-percent “Normal Melting Agarose” (NMA) in 1×PBS was cooked, and subsequently about 600 μl of agarose were applied onto an object slide. The object slides were shortly (˜5 min) dried at 50° C., and stored over night at room temperature. Then, the 0.7-percent “Low Melting Agarose” (LMA) was prepared in distilled water. The second layer on the object slides consisted of 200 μl LMA. […]
smiles,measurement,setting,value
C/C=C/C=C/C(O)=C1/C(=O)C(C)=C(O)[C@@]2(C)OC(=O)[C@@](C)(NC(=O)/C=C/C(=O)O)[C@@H]12 [sorbicillactone A],change of the extent tail moment (DNA-strand scissions),"4 hours incubation, FIG. 2A",did not exhibit significant changes
same,change of the extent tail moment (DNA-strand scissions),"24 hours incubation, FIG. 2B",no significant changes
